Results: patent US5543429A, “Antifungal agents” (Merck & Co., Inc., priority 1995, dated 1996)
≈ marks a conversion by molar mass, not a printed value.

Assays:
[1] = test system: Candida albicans MY1055; assay: broth microdilution assay (MIC/MFC); conditions: for MIC: MY1055, 24 h, read-out: Minimum Inhibitory Concentration (MIC); for MFC: MY1055, read-out: Minimum Fungicidal Concentration (MFC)
[2] = test system: Candida glabrata MY1381; assay: broth microdilution assay (MIC/MFC); conditions: Nakaseomyces glabratus; for MIC: MY1381, 24 h, read-out: Minimum Inhibitory Concentration (MIC); for MFC: MY1381, read-out: Minimum Fungicidal Concentration (MFC)
[3] = test system: Candida parapsilosis MY1010; assay: broth microdilution assay (MIC/MFC); conditions: Lodderomyces parapsilosis; for MIC: MY1010, 24 h, read-out: Minimum Inhibitory Concentration (MIC); for MFC: MY1010, read-out: Minimum Fungicidal Concentration (MFC)
[4] = test system: Candida pseudotropicalis MY2099; assay: broth microdilution assay (MIC/MFC); conditions: Kluyveromyces marxianus; for MIC: MY2099, 24 h, read-out: Minimum Inhibitory Concentration (MIC); for MFC: MY2099, read-out: Minimum Fungicidal Concentration (MFC)
[5] = test system: Candida tropicalis MY1124; assay: broth microdilution assay (MIC/MFC); conditions: for MIC: MY1124, 24 h, read-out: Minimum Inhibitory Concentration (MIC); for MFC: MY1124, read-out: Minimum Fungicidal Concentration (MFC)
[6] = test system: Candida albicans CLY539; assay: broth microdilution assay (MIC/MFC); conditions: for MIC: CLY539, 24 h, read-out: Minimum Inhibitory Concentration (MIC); for MFC: CLY539, read-out: Minimum Fungicidal Concentration (MFC)
[7] = test system: Candida albicans CA2; assay: broth microdilution assay (MIC/MFC); conditions: for MIC: CA2, 24 h, read-out: Minimum Inhibitory Concentration (MIC); for MFC: CA2, read-out: Minimum Fungicidal Concentration (MFC)
[8] = test system: Candida tropicalis MY1012; assay: broth microdilution assay (MIC/MFC); conditions: for MIC: MY1012, 24 h, read-out: Minimum Inhibitory Concentration (MIC); for MFC: MY1012, read-out: Minimum Fungicidal Concentration (MFC)
[9] = test system: Candida guillermondii MY1019; assay: broth microdilution assay (MIC/MFC); conditions: for MIC: MY1019, 24 h, read-out: Minimum Inhibitory Concentration (MIC); for MFC: MY1019, read-out: Minimum Fungicidal Concentration (MFC)
[10] = test system: Cryptococcus neoformans MY2062; assay: broth microdilution assay (MIC/MFC); conditions: MY2062, 48 h; for MIC: read-out: Minimum Inhibitory Concentration (MIC); for MFC: read-out: Minimum Fungicidal Concentration (MFC)
[11] = test system: Saccharomyces cerevisiae MY2140; assay: broth microdilution assay (MIC/MFC); conditions: for MIC: MY2140, 24 h, read-out: Minimum Inhibitory Concentration (MIC); for MFC: MY2140, read-out: Minimum Fungicidal Concentration (MFC)
[12] = test system: Saccharomyces cerevisiae MY2141; assay: broth microdilution assay (MIC/MFC); conditions: for MIC: MY2141, 24 h, read-out: Minimum Inhibitory Concentration (MIC); for MFC: MY2141, read-out: Minimum Fungicidal Concentration (MFC)
[13] = test system: Aspergillus fumigatus MY4839; assay: broth microdilution assay (MIC/MFC); conditions: MY4839, 24 h, read-out: Minimum Inhibitory Concentration (MIC)
[14] = test system: Aspergillus fumigatus MY5668; assay: broth microdilution assay (MIC/MFC); conditions: MY5668, 24 h, read-out: Minimum Inhibitory Concentration (MIC)
[15] = test system: Plasmopara viticola; assay: in vivo protectant assay, downy mildew on grape; conditions: P. viticola
[16] = test system: Botrytis cinerea; assay: in vivo protectant assay, grey mold on pepper; conditions: B. cinerea
[17] = test system: Phytophthora infestans; type: in vivo; conditions: P. infestans, miniature plant assay
[18] = test system: Alternaria solani; assay: in vivo protectant assay, early blight on tomato; conditions: A. solani, miniature plant assay
[19] = test system: Septoria nodorum; assay: in vivo protectant assay, glume blotch on wheat; conditions: S. nodorum, scaled up, high spray volume assay, 100 ppm
[20] = test system: Puccinia recondita; assay: in vivo protectant assay, wheat leaf rust on wheat; conditions: P. recondita, scaled up, high spray volume assay, 100 ppm
[21] = test system: panel of seven pathogens; assay: in vivo protectant assay, panel of seven phytopathogens
[22] = test system: Aspergillus flavus, Fusarium oxysporum, Ustilago zeae and the like; assay: agar plate inhibition zone test with filamentous fungi; type: cell-based; conditions: agar plates, 28°C or 37°C, 24 hours
[23] = test system: Cryptococcus neoformans MY2061; assay: broth microdilution assay (MIC/MFC); conditions: MY2061, 48 h; for MFC: read-out: Minimum Fungicidal Concentration (MFC); for MIC: read-out: Minimum Inhibitory Concentration (MIC)
[24] = scaled up, high spray volume assay, 100 ppm

SMILES | MIC [1] [µg/mL] | MFC [1] [µg/mL] | MIC [2] [µg/mL] | MFC [2] [µg/mL] | MIC [3] [µg/mL] | MFC [3] [µg/mL] | MIC [4] [µg/mL] | MFC [4] [µg/mL] | MIC [5] [µg/mL] | MFC [5] [µg/mL] | MIC [6] [µg/mL] | MFC [6] [µg/mL] | MIC [7] [µg/mL] | MFC [7] [µg/mL] | MIC [8] [µg/mL] | MFC [8] [µg/mL] | MIC [9] [µg/mL] | MFC [9] [µg/mL] | MIC [10] [µg/mL] | MIC [11] [µg/mL] | also measured
C[C@@H]1[C@H](O)[C@@H](C)/C=C/C=C/C=C/C=C/C=C/C=C/C=C/[C@H](O[C@@H]2O[C@H](C)[C@@H](O)[C@H](N)[C@@H]2O)C[C@@H]2O[C@](O)(C[C@@H](O)C[C@@H](O)[C@H](O)CC[C@@H](O)C[C@@H](O)CC(=O)O[C@H]1C)C[C@H](O)[C@H]2C(=O)O [Amphotericin B, amphotericin B, reference compound] | 1 (≈ 1.08 µM) | 1 (≈ 1.08 µM) | 2 (≈ 2.16 µM) | 2 (≈ 2.16 µM) | 1 (≈ 1.08 µM) | 1 (≈ 1.08 µM) | 2 (≈ 2.16 µM) | 2 (≈ 2.16 µM) | 2 (≈ 2.16 µM) | 2 (≈ 2.16 µM) | 1 (≈ 1.08 µM) | 2 (≈ 2.16 µM) | 1 (≈ 1.08 µM) | 1 (≈ 1.08 µM) | 16 (≈ 17.3 µM) | 16 (≈ 17.3 µM) | 1 (≈ 1.08 µM) | 2 (≈ 2.16 µM) | 1 (≈ 1.08 µM) | 1 (≈ 1.08 µM) | MFC [11]: 1 µg/mL (≈ 1.08 µM); MIC [12]: 1 µg/mL (≈ 1.08 µM); MFC [12]: 1 µg/mL (≈ 1.08 µM); MIC [13]: 2 µg/mL (≈ 2.16 µM); MIC [14]: 2 µg/mL (≈ 2.16 µM)
C=CC1=CCC2C(CC3OC(=O)C4(C)C(O)CCC2(C)C34O)C1C (stereo not drawn) [Compound II] | 2 (≈ 6.02 µM) | 4 (≈ 12 µM) | 4 (≈ 12 µM) | 4 (≈ 12 µM) | 8 (≈ 24.1 µM) | 8 (≈ 24.1 µM) | 1 (≈ 3.01 µM) | 2 (≈ 6.02 µM) | 4 (≈ 12 µM) | 8 (≈ 24.1 µM) | 2 (≈ 6.02 µM) | 2 (≈ 6.02 µM) | 32 (≈ 96.3 µM) | 4 (≈ 12 µM) | 2 (≈ 6.02 µM) | 2 (≈ 6.02 µM) | 8 (≈ 24.1 µM) | 16 (≈ 48.1 µM) | 1 (≈ 3.01 µM) | 1 (≈ 3.01 µM) | percent control of disease ([15]; miniature plant assay): 80-95%; percent control of disease ([15]; protectant assay, 11 ppm): 50-85%; percent control of disease [15, 24]: 100%; percent control of disease ([16]; miniature plant assay): 80-95%; percent control of disease ([16]; protectant assay, 11 ppm): 50-85%; percent control of disease [16, 24]: 100%; percent control of disease [17]: 80-95%; percent control of disease [18]: 80-95%; percent control of disease [19]: 60%; percent control of disease [20]: 100%; control of phytopathogens [21]: very efficacious at controlling six of the phytopathogens; inhibition of growth of filamentous fungi [22]: effectively inhibit growth of the fungal organisms; MFC [23]: 1 µg/mL (≈ 3.01 µM); MIC [23]: 2 µg/mL (≈ 6.02 µM); MFC [10]: 1 µg/mL (≈ 3.01 µM); MFC [11]: 2 µg/mL (≈ 6.02 µM); MIC [12]: 0.5 µg/mL (≈ 1.5 µM); MFC [12]: 1 µg/mL (≈ 3.01 µM); MIC [13]: 2 µg/mL (≈ 6.02 µM); MIC [14]: 1 µg/mL (≈ 3.01 µM)
C=CC1C(=C)CCC2C1CC1OC(=O)C3(C)C(O)CCC2(C)C13O (stereo not drawn) [Compound I] | 2 (≈ 6.02 µM) | 4 (≈ 12 µM) | 8 (≈ 24.1 µM) | 8 (≈ 24.1 µM) | 8 (≈ 24.1 µM) | 32 (≈ 96.3 µM) | 4 (≈ 12 µM) | 4 (≈ 12 µM) | 8 (≈ 24.1 µM) | 16 (≈ 48.1 µM) | 4 (≈ 12 µM) | 2 (≈ 6.02 µM) | 8 (≈ 24.1 µM) | 8 (≈ 24.1 µM) | 2 (≈ 6.02 µM) | 2 (≈ 6.02 µM) | 8 (≈ 24.1 µM) | 16 (≈ 48.1 µM) | 0.25 (≈ 0.752 µM) | 2 (≈ 6.02 µM) | percent control of disease ([15]; 200 ppm): up to 80%; percent control of disease ([16]; 200 ppm): up to 80%; inhibition of growth of filamentous fungi [22]: effectively inhibit growth of the fungal organisms; MFC [23]: 0.25 µg/mL (≈ 0.752 µM); MIC [23]: 0.5 µg/mL (≈ 1.5 µM); MFC [10]: 0.25 µg/mL (≈ 0.752 µM); MFC [11]: 8 µg/mL (≈ 24.1 µM); MIC [12]: 1 µg/mL (≈ 3.01 µM); MFC [12]: 8 µg/mL (≈ 24.1 µM); MIC [13]: 4 µg/mL (≈ 12 µM); MIC [14]: 8 µg/mL (≈ 24.1 µM)
